Results from PubChem BioAssay (NCI).
“And” between values parts separate entries of the source, which are not always exact repeats. Equal entries are not always repeated.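 48-hour exposure; five concentrations; linearly interpolated endpoints. GI50: concentration for 50% inhibition of growth. At the TGI there is no net growth.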 *1 amine or outer side, *2 acyl side, *3 side chain or, on linkers, in order; H or OH if unused. Where a SMILES comes first, the peptide text is derived from it. Bridges are numbered along the chain shown (N, C = ends). Roman numbers before positions name the chains, in order. [ ]: non-standard residue; d: D form. Actinocin(9to1) = Cc1c2oc3c(C)ccc(C(=O)[*:1])c3nc-2c(C(=O)[*:2])c(N)c1=O; NMeV = CN[CH](C(=O)O)C(C)C; Sar = CNCC(=O)O

tested on: MDA-MB-468 breast; test: growth of human tumour cells (NCI), 48 h

Row | Compound | GI50 | TGI
1 | CC(CN(C)C)S(=O)(=O)c1ccc(-c2cnc(N)c(C(=O)Nc3ccccc3)n2)cc1 (centres undefined) | 4980 nM | 20400 nM
2 | COc1cccc(-n2ncc3c(N/N=C/c4ccc(C)cc4)ncnc32)c1 | > 25000 nM | > 25000 nM
3 | COc1cc(OC)c(/C=C/C(=O)c2ccc(Nc3ncnc4ccccc34)cc2)c(OC)c1 | 306 nM | 1550 nM
4 | N#Cc1cnc2ccc(-c3cnc4n[nH]nc4c3)cc2c1N1CCc2cc(F)c(Cl)cc21 | 1990 nM | 10700 nM
5 | Cc1cc(C(=O)Nc2cc(Oc3ccc4nc(NC(=O)C5CC5)cn4n3)ccc2C)n(C)n1 | 5510 nM | > 10000 nM
6 | C=C1C(=O)O[C@H]2[C@H]1CC/C(Cn1cc(Cc3c[nH]c4ccccc34)nn1)=C\CC[C@@]1(C)O[C@@H]21 | 1450 nM | 3880 nM
7 | CN(C)C[C@H]1CCn2c(c(C3=C(c4cn(C)c5ccccc45)C(=O)NC3=O)c3ccccc32)C1 | 3850 nM | 7860 nM
8 | O=C1/C(=C/c2ccc(F)c(F)c2)CN(C(=O)C(Cl)Cl)C/C1=C\c1ccc(F)c(F)c1 | 158 nM | 352 nM
9 | Nc1ncnc2c1c(-c1ccc(Oc3ccccc3)cc1)nn2C[C@H]1SSC[C@@H]1O | 351 nM | 1630 nM
10 | Oc1[nH]c(N=C2N=c3ccccc3=N2)c2ccccc12 | 11200 nM | 31200 nM
11 | COc1ccc(C(C#N)=C2C=CC(=NO)C=C2)cc1 | 833 nM | 4560 nM
12 | Clc1ccccc1[C@@H]1C[C@@H]2Cc3cc(Br)c4ccccc4c3N1O2 | 1810 nM | 5670 nM
13 | C=CCNc1nc(O)c(/C=C2\C=Nc3ncccc32)s1 | 1920 nM | 4130 nM
14 | CCN(CC)CCCOc1ccc2ncnc(Nc3ccc(Oc4cccc(C(F)(F)F)c4)c(Cl)c3)c2c1 | 879 nM | 2330 nM
15 | O=C(Nc1ccc2ncnc(Nc3ccc(Oc4cccc(F)c4)c(Cl)c3)c2c1)c1ccc(CN2CCOCC2)cc1 | 1500 nM | 6570 nM
16 | Cc1c2oc3c(C)ccc(C(=O)OC(C)C4NC(=O)C(C(C)C)N(C)C(=O)CN(C)C(=O)C5CCCN5C(=O)C(C(C)C)NC4=O)c3nc-2c(C(=O)OC(C)C2NC(=O)C(C(C)C)N(C)C(=O)CN(C)C(=O)C3CCCN3C(=O)C(C(C)C)NC2=O)c(N)c1=O (centres undefined) (I: cyclo([Sar][NMeV]TVP) / II: cyclo([Sar][NMeV]TVP); linker I:3-II:3 via Actinocin(9to1); configuration not given here) | < 10 nM | 15.2 nM
17 | CCCCCCCN(CCCCCCC)C(=N)c1ccnc2ccccc12 | 1700 nM | 3370 nM
18 | C[C@]12CC[C@@H]3c4ccc(O)cc4CC[C@H]3[C@@H]1CC[C@@H]2NS(=O)(=O)c1cccc(Cl)c1 | 1980 nM | 8120 nM
19 | c1cc(CN2CCCNCCNCCCNCC2)ccc1CN1CCCNCCNCCCNCC1 | > 100000 nM | > 100000 nM
20 | COc1cc(-c2nn(-c3cccc(NC(=O)NCCNS(=O)(=O)c4ccc(Cl)cc4)c3)cc2-c2ccncc2)ccc1Cl | 332 nM | 1670 nM

Row | Compound | GI50 | TGI
21 | CCCCCCCCCCCC[N+](C)(C)Cc1ccccc1 | 508 nM | 4250 nM
22 | COc1ccc(-c2nsc3c2NC(=O)CC3c2ccc3c(c2)OCCO3)cc1 (centres undefined) | 328 nM | > 100000 nM
23 | CN(C)c1ccc(C(=N)c2ccc(N(C)C)cc2)cc1 | 509 nM and 759 nM | 3000 nM and 3520 nM
24 | CCN1C(=O)N(CC)C2C1NN=c1s/c(=C\c3cccs3)c(=O)n12 (centres undefined) | 113 nM | > 100000 nM
25 | C=C1C(=O)O[C@H]2[C@H]1CC/C(COC(=O)c1cn(C)c3ccccc13)=C\CC[C@@]1(C)O[C@@H]21 | 446 nM | 1990 nM
26 | C=C(C)[C@@H]1CC[C@]2(COCCCNCCCN)CC[C@]3(C)[C@H](CC[C@@H]4[C@@]5(C)CC[C@H](OCCCN)C(C)(C)[C@@H]5CC[C@]43C)[C@@H]12 | 882 nM | 1740 nM
27 | COC12C=C/C(=C(/C(=O)OCCSc3ccnn3C)C(=O)CCCCCCCCC3(OC)C=C/C(=C(/C(=O)OCCSc4ccnn4C)C(=O)CCCCCCCC1)O3)O2 | 951 nM | 4130 nM
28 | CCN1C(=O)N(CC)C2SC(N/N=C/c3ccccc3F)=NC21 (centres undefined) | 296 nM | 24700 nM
29 | CC(=Nc1ccccc1)C1=C(O)C(Cc2cccc(F)c2)NC1=O (centres undefined) | 36.4 nM | 62000 nM
30 | O=C1NCN(c2ccccc2)C12CCN(CCCC(c1ccc(F)cc1)c1ccc(F)cc1)CC2 | 1770 nM | 4370 nM
31 | CC(=O)O[C@@]12CO[C@@H]1C[C@H](O)[C@@]1(C)C(=O)[C@H](O)C3=C(C)[C@@H](OC(=O)[C@H](O)[C@@H](NC(=O)OC(C)(C)C)c4ccccc4)C[C@@](O)([C@@H](OC(=O)c4ccccc4)C12)C3(C)C (some centres undefined) | < 5 nM | –
32 | COc1cccc(Sc2ccc([N+](=O)[O-])c3no[n+]([O-])c23)c1 | 2420 nM | 7610 nM
33 | CCCCC[C@H]1CC=C2C(=O)C=C[C@@H]2CC=CCCCC(=O)O[C@@H](CCCCC)CC=C2C(=O)C=C[C@@H]2CC=CCCCC(=O)O[C@@H](CCCCC)CC=C2C(=O)C=C[C@@H]2CC=CCCCC(=O)O1 | 272 nM | 847 nM
34 | c1ccc2cc(Cn3cc[n+](Cc4ccc5ccccc5c4)c3)ccc2c1 | 250 nM | 849 nM
35 | O=P(O)(O)OCC1OC(n2cnc3c(NCc4ccco4)ncnc32)C(O)C1O (centres undefined) | 2270 nM | 7660 nM
36 | CC(C)(C)Nc1nc2c(OCCc3ccccc3)cccn2c1-c1ccc(Cl)cc1 | 16900 nM | 45300 nM
37 | CC/C=C\C[C@H](O)C/C=C1/C(=O)C=C[C@@H]1C/C=C\CCCC(=O)OC(C)C | 1290 nM | 3060 nM
38 | CCC#CC[C@H](O)C/C=C1/C(=O)C=C[C@@H]1C/C=C\CCCC(=O)OC | 1230 nM | 3980 nM
39 | O=C1Nc2ccccc2/C1=C\c1cccc(/C=C2/C(=O)Nc3ccccc32)n1 | 336 nM | 1380 nM
40 | CN(C)C(=S)/N=c1\ssc(=S)n1Cc1cccs1 | 4070 nM | > 100000 nM
